Patent US20240238423A9, “TETRAHYDROISOQUINOLINE HETEROBIFUNCTIONAL BCL-XL DEGRADERS” (Treeline Biosciences, Inc., priority 2022, published 2024)

Molecular target: T1, Human BCL-XL protein (N-terminal HiBiT tagged BCL-XL in HT1080 cells) (Homo sapiens, UniProt Q07817)
T1 construct: expressed in transfected cells; host or cells: HT-1080 (ATCC CCL-121), stably transduced with lentivirus pLV-UBC-N-HiBiT-BCL-XL-PGK-puro and selected with puromycin
Assay: HiBiT based degradation assay
Format: cell-based
Settings: HT1080 cells expressing HiBiT-BCL-XL, 24 h; for Ymin (24 h): BCL-XL degradation normalized with DMSO control; for DC50: BCL-XL degradation, read-out: EC50 (24 h)
How it was run: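 This HiBiT degradation assay measured loss of BCL-XL in HT1080 cells that stably express an N-terminal HiBiT-BCL-XL fusion delivered by lentivirus. Cells were added to compound-spotted 384-well plates, and luminescence was read on a PHERAstar FSX reader. Signal was expressed relative to DMSO controls, curves were fitted by four-parameter logistic regression, and for hook-shaped curves the Ymin point served as the bottom plateau when calculating EC50.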

T1 sequence (Q07817 whole entry): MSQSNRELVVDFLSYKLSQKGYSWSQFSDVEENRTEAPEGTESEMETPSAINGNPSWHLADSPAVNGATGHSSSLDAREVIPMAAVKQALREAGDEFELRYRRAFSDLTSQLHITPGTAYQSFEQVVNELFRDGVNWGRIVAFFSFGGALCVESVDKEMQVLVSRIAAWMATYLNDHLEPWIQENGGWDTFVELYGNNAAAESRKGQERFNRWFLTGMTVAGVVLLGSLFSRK

Structure (SMILES)	Ymin (24 h)	DC50 [nM]
Cc1c(O[C@H]2CC[C@H](CCCN3CCN(c4cccc5c(C6CCC(=O)NC6=O)nn(C)c45)C[C@H]3C)CC2)cccc1-c1ccc(N2CCc3cccc(C(=O)Nc4nc5ccccc5s4)c3C2)nc1C(=O)O (stereo partly drawn) [Compound 275a, 6-(8-(benzo[d]thiazol-2-ylcarbamoyl)-3,4-dihydroisoquinolin-2(1H)-yl)-3-(3-(((1S,4r)-4-(3-((2R)-4-(3-(2,6-dioxopiperidin-3-yl)-1-methyl-1H-indazol-7-yl)-2-methylpiperazin-1-yl)propyl)cyclohexyl)oxy)-2-methylphenyl)picolinic acid]	A (Ymin < 50%)	< 100
Cc1c(O[C@H]2CC[C@H](CCCN3CCN(c4cccc5c(C6CCC(=O)NC6=O)nn(C)c45)C[C@@H]3C)CC2)cccc1-c1ccc(N2CCc3cccc(C(=O)Nc4nc5ccccc5s4)c3C2)nc1C(=O)O (stereo partly drawn) [Compound 275b, 6-(8-(benzo[d]thiazol-2-ylcarbamoyl)-3,4-dihydroisoquinolin-2(1H)-yl)-3-(3-(((1R,4r)-4-(3-((2S)-4-(3-(2,6-dioxopiperidin-3-yl)-1-methyl-1H-indazol-7-yl)-2-methylpiperazin-1-yl)propyl)cyclohexyl)oxy)-2-methylphenyl)picolinic acid]	C (Ymin ≥ 70%)	< 100
Cc1c(OCCC2CC3(C2)CN(CC(=O)Nc2ccc4c(C5CCC(=O)NC5=O)nn(C)c4c2)C3)cccc1-c1ccc(N2CCc3cccc(C(=O)Nc4nc5ccccc5s4)c3C2)nc1C(=O)O (centres unmarked) [Compound 277, 6-(8-(benzo[d]thiazol-2-ylcarbamoyl)-3,4-dihydroisoquinolin-2(1H)-yl)-3-(3-(2-(2-(2-((3-(2,6-dioxopiperidin-3-yl)-1-methyl-1H-indazol-6-yl)amino)-2-oxoethyl)-2-azaspiro[3.3]heptan-6-yl)ethoxy)-2-methylphenyl)picolinic acid]	A (Ymin < 50%)	< 100
Cc1c(O[C@H]2CC[C@H](CCCN3CCN(c4ccc5c(C6CCC(=O)NC6=O)nn(C)c5c4)[C@H](C)C3)CC2)cccc1-c1ccc(N2CCc3cccc(C(=O)Nc4nc5ccccc5s4)c3C2)nc1C(=O)O (stereo partly drawn) [Compound 278a, 6-(8-(benzo[d]thiazol-2-ylcarbamoyl)-3,4-dihydroisoquinolin-2(1H)-yl)-3-(3-(((1S,4r)-4-(3-((3R)-4-(3-(2,6-dioxopiperidin-3-yl)-1-methyl-1H-indazol-6-yl)-3-methylpiperazin-1-yl)propyl)cyclohexyl)oxy)-2-methylphenyl)picolinic acid]	A (Ymin < 50%)	< 100
Cc1c(O[C@H]2CC[C@H](CCCN3CCN(c4ccc5c(C6CCC(=O)NC6=O)nn(C)c5c4)[C@@H](C)C3)CC2)cccc1-c1ccc(N2CCc3cccc(C(=O)Nc4nc5ccccc5s4)c3C2)nc1C(=O)O (stereo partly drawn) [Compound 278b, 6-(8-(benzo[d]thiazol-2-ylcarbamoyl)-3,4-dihydroisoquinolin-2(1H)-yl)-3-(3-(((1R,4r)-4-(3-((3S)-4-(3-(2,6-dioxopiperidin-3-yl)-1-methyl-1H-indazol-6-yl)-3-methylpiperazin-1-yl)propyl)cyclohexyl)oxy)-2-methylphenyl)picolinic acid]	A (Ymin < 50%)	< 100
Cc1c(OCCCC2CCN(CC3CCN(c4cccc5c(C6CCC(=O)NC6=O)nn(C)c45)CC3)CC2)cccc1-c1ccc(N2CCc3cccc(C(=O)Nc4nc5ccccc5s4)c3C2)nc1C(=O)O (centres unmarked) [Compound 279, 6-[8-(1,3-benzothiazol-2-ylcarbamoyl)-3,4-dihydro-1H-isoquinolin-2-yl]-3-[3-[3-[1-[[1-[3-(2,6-dioxo-3-piperidyl)-1-methyl-indazol-7-yl]-4-piperidyl]methyl]-4-piperidyl]propoxy]-2-methyl-phenyl]pyridine-2-carboxylic acid]	A (Ymin < 50%)	< 100
Cc1c(OCCCc2ccc(CC(=O)Nc3ccc4c(C5CCC(=O)NC5=O)nn(C)c4c3)nc2)cccc1-c1ccc(N2CCc3cccc(C(=O)Nc4nc5ccccc5s4)c3C2)nc1C(=O)O (centres unmarked) [Compound 280, 6-[8-(1,3-benzothiazol-2-ylcarbamoyl)-3,4-dihydro-1H-isoquinolin-2-yl]-3-[3-[3-[6-[2-[[3-(2,6-dioxo-3-piperidyl)-1-methyl-indazol-6-yl]amino]-2-oxo-ethyl]-3-pyridyl]propoxy]-2-methyl-phenyl]pyridine-2-carboxylic acid]	B (50% ≤ Ymin < 70%)	< 100
Cc1c(OCCCCC2CCN(CC3CCN(c4cccc5c(C6CCC(=O)NC6=O)nn(C)c45)CC3)CC2)cccc1-c1ccc(N2CCc3cccc(C(=O)Nc4nc5ccccc5s4)c3C2)nc1C(=O)O (centres unmarked) [Compound 285, 6-[8-(1,3-benzothiazol-2-ylcarbamoyl)-3,4-dihydro-1H-isoquinolin-2-yl]-3-[3-[4-[1-[[1-[3-(2,6-dioxo-3-piperidyl)-1-methyl-indazol-7-yl]-4-piperidyl]methyl]-4-piperidyl]butoxy]-2-methyl-phenyl]pyridine-2-carboxylic acid]	A (Ymin < 50%)	< 100
Cc1c(OCCCC2CC3(C2)CN(CC(=O)Nc2ccc4c(C5CCC(=O)NC5=O)nn(C)c4c2)C3)cccc1-c1ccc(N2CCc3cccc(C(=O)Nc4nc5ccccc5s4)c3C2)nc1C(=O)O (centres unmarked) [Compound 286, 6-[8-(1,3-benzothiazol-2-ylcarbamoyl)-3,4-dihydro-1H-isoquinolin-2-yl]-3-[3-[3-[2-[2-[[3-(2,6-dioxo-3-piperidyl)-1-methyl-indazol-6-yl]amino]-2-oxo-ethyl]-2-azaspiro[3.3]heptan-6-yl]propoxy]-2-methyl-phenyl]pyridine-2-carboxylic acid]	A (Ymin < 50%)	< 100
Cc1c(OCCC2CCN(CCCC3CCN(c4ccc5c(C6CCC(=O)NC6=O)nn(C)c5c4)CC3)CC2)cccc1-c1ccc(N2CCc3cccc(C(=O)Nc4nc5ccccc5s4)c3C2)nc1C(=O)O (centres unmarked) [Compound 287, 6-[8-(1,3-benzothiazol-2-ylcarbamoyl)-3,4-dihydro-1H-isoquinolin-2-yl]-3-[3-[2-[1-[3-[1-[3-(2,6-dioxo-3-piperidyl)-1-methyl-indazol-6-yl]-4-piperidyl]propyl]-4-piperidyl]ethoxy]-2-methyl-phenyl]pyridine-2-carboxylic acid]	A (Ymin < 50%)	< 100
Cc1c(OCCC2CCN(CCCC3CCN(c4cccc5c(C6CCC(=O)NC6=O)nn(C)c45)CC3)CC2)cccc1-c1ccc(N2CCc3cccc(C(=O)Nc4nc5ccccc5s4)c3C2)nc1C(=O)O (centres unmarked) [Compound 288, 6-[8-(1,3-benzothiazol-2-ylcarbamoyl)-3,4-dihydro-1H-isoquinolin-2-yl]-3-[3-[2-[1-[3-[1-[3-(2,6-dioxo-3-piperidyl)-1-methyl-indazol-7-yl]-4-piperidyl]propyl]-4-piperidyl]ethoxy]-2-methyl-phenyl]pyridine-2-carboxylic acid]	A (Ymin < 50%)	< 100
Cc1c(CCCOC2CCN(CC(=O)Nc3ccc4c(C5CCC(=O)NC5=O)nn(C)c4c3)CC2)cccc1-c1ccc(N2CCc3cccc(C(=O)Nc4nc5ccccc5s4)c3C2)nc1C(=O)O (centres unmarked) [Compound 290, 6-[8-(1,3-benzothiazol-2-ylcarbamoyl)-3,4-dihydro-1H-isoquinolin-2-yl]-3-[3-[3-[[1-[2-[[3-(2,6-dioxo-3-piperidyl)-1-methyl-indazol-6-yl]amino]-2-oxo-ethyl]-4-piperidyl]oxy]propyl]-2-methyl-phenyl]pyridine-2-carboxylic acid]	A (Ymin < 50%)	< 100
Cc1cc(CCCOC2CCN(CC(=O)Nc3ccc4c(C5CCC(=O)NC5=O)nn(C)c4c3)CC2)ccc1-c1ccc(N2CCc3cccc(C(=O)Nc4nc5ccccc5s4)c3C2)nc1C(=O)O (centres unmarked) [Compound 291, 6-[8-(1,3-benzothiazol-2-ylcarbamoyl)-3,4-dihydro-1H-isoquinolin-2-yl]-3-[4-[3-[[1-[2-[[3-(2,6-dioxo-3-piperidyl)-1-methyl-indazol-6-yl]amino]-2-oxo-ethyl]-4-piperidyl]oxy]propyl]-2-methyl-phenyl]pyridine-2-carboxylic acid]	A (Ymin < 50%)	< 100
Cc1c(CCCCC2CCN(CC(=O)Nc3ccc4c(C5CCC(=O)NC5=O)nn(C)c4c3)CC2)cccc1-c1ccc(N2CCc3cccc(C(=O)Nc4nc5ccccc5s4)c3C2)nc1C(=O)O (centres unmarked) [Compound 292, 6-[8-(1,3-benzothiazol-2-ylcarbamoyl)-3,4-dihydro-1H-isoquinolin-2-yl]-3-[3-[4-[1-[2-[[3-(2,6-dioxo-3-piperidyl)-1-methyl-indazol-6-yl]amino]-2-oxo-ethyl]-4-piperidyl]butyl]-2-methyl-phenyl]pyridine-2-carboxylic acid]	A (Ymin < 50%)	< 100
Cc1c(O[C@H]2CC[C@H](CCCCN3CCN(c4ccc5c(C6CCC(=O)NC6=O)nn(C)c5c4F)CC3)CC2)cccc1-c1ccc(N2CCc3cccc(C(=O)Nc4nc5ccccc5s4)c3C2)nc1C(=O)O (some centres unmarked) [Compound 293a, 6-(8-(benzo[d]thiazol-2-ylcarbamoyl)-3,4-dihydroisoquinolin-2(1H)-yl)-3-(3-(((1s,4r)-4-(4-(4-(3-(2,6-dioxopiperidin-3-yl)-7-fluoro-1-methyl-1H-indazol-6-yl)piperazin-1-yl)butyl)cyclohexyl)oxy)-2-methylphenyl)picolinic acid]	A (Ymin < 50%)	< 100
Cc1cc(CCCCC2CCN(CC(=O)Nc3ccc4c(C5CCC(=O)NC5=O)nn(C)c4c3)CC2)ccc1-c1ccc(N2CCc3cccc(C(=O)Nc4nc5ccccc5s4)c3C2)nc1C(=O)O (centres unmarked) [Compound 294]	A (Ymin < 50%)	< 100
